The subject of series [1] is RAW264.7. The series is described as follows: Antiinflammatory activity in mouse RAW264.7 assessed as decrease in LPS-induced TNF-alpha production at 10 uM pretreated with 1 ug/ml LPS for 22 hrs followed by addition of compound for 24 hrs by ELISA. The class given is functional, cell-based. (ELISA stands for enzyme-linked immunosorbent assay.)
Series [2] relates to RAW264.7. The series is described as follows: Antiinflammatory activity in mouse RAW264.7 assessed as decrease in LPS-induced IL-6 production at 10 uM pretreated with 1 ug/ml LPS for 22 hrs followed by addition of compound for 24 hrs by ELISA. The class given is functional, cell-based.
Series [3] can be described thus: Octanol/water partition coefficient, logP of the compound by shake flask method. The class given is physicochemical.
In series [4] the test system is RAW264.7. The series is described as follows: Cytotoxicity against mouse RAW264.7 cells at 100 uM for 24 hrs by MTT assay. The format is cell-based. As to conditions: raw264.7, 24 h. For orientation: Tetrazolium assays rely on reduction of a dye to a coloured formazan, in cell work by metabolically active cells.
In series [5] the test system is RAW264.7. The series is described as follows: Cytotoxicity against mouse RAW264.7 cells at 1 to 10 uM for 24 hrs by MTT assay. The class given is cell-based. As to conditions: raw264.7, 24 h.
Series [6] has as its system RAW264.7. As to the kind of experiment: Antiinflammatory activity in mouse RAW264.7 assessed as decrease in LPS-induced IL-6 production pretreated with 1 ug/ml LPS for 22 hrs followed by addition of compound for 24 hrs by ELISA. The format is functional, cell-based.
In series [7] the test system is RAW264.7. As to the kind of experiment: Antiinflammatory activity in mouse RAW264.7 assessed as inhibition of LPS-induced notch-1 expression at 10 uM pretreated with 1 ug/ml LPS for 22 hrs followed by addition of compound for 24 hrs by Western blot analysis. The format is functional, cell-based. For orientation: A western blot detects proteins with antibodies after separation by electrophoresis.

Series [8] has as its system RAW264.7. As to the kind of experiment: Antiinflammatory activity in mouse RAW264.7 assessed as decrease in LPS-induced TNF-alpha production pretreated with 1 ug/ml LPS for 22 hrs followed by addition of compound for 24 hrs by ELISA. The class given is functional, cell-based.
For series [9], the system named is RAW264.7. The series is described as follows: Antiinflammatory activity in LPS-induced mouse RAW264.7 assessed as inhibition of LPS-induced iNOS expression pretreated with 1 ug/ml LPS for 22 hrs followed by addition of compound for 24 hrs by Western blot analysis. The class given is functional, cell-based.

Structures are written as SMILES. Calls of active or inactive are those of the source. The calls are words filed in the database; no cut-off is given here.

Results on 18 molecules are retold here after ChEMBL document CHEMBL3763074, “Hesperetin derivatives: Synthesis and anti-inflammatory activity” (Bioorg Med Chem Lett, 2016).

For `COc1ccc([C@@H]2CC(=O)c3c(cc(O)c(CN4CCOCC4)c3O)O2)cc1O`, the outcome in [1] and in [2] was Active. Moreover, in series [3], the logP was 1.23.
Consider `COc1ccc(CCNCc2c(O)cc3c(c2O)C(=O)C[C@@H](c2ccc(OC)c(O)c2)O3)cc1`, for which the result in series [1] and in [2] was Active. The Activity result in [4] is given as “Toxic”; in [5], “Non-toxic”. In series [3], the logP turned out to be 1.56.
Take `COc1ccc([C@@H]2CC(=O)c3c(O)cc(O)cc3O2)cc1O` [HESPERETIN]: the result in [1] and in [2] was Active. In addition, the logP in [3] worked out at 2.15. The Activity entry in [5] was “Non-toxic”.
For the molecule `COc1ccc2c(c1)c(CC(=O)O)c(C)n2C(=O)c1ccc(Cl)cc1`, the result in series [1] and in series [2] was Active.
For the molecule `COc1ccc([C@@H]2CC(=O)c3c(cc(O)c(CN4CCN(C)CC4)c3O)O2)cc1O`, the outcome in series [1] and in series [2] was Active. The molecule also had a logP in [3] of 1.19. Besides, the Activity result in series [5] is “Non-toxic”.
As to `COc1ccc([C@@H]2CC(=O)c3c(cc(O)c(CNCCCN4CCOCC4)c3O)O2)cc1O`, the result in series [1] and in series [2] was Active. In series [3], the logP turned out to be 1.2.
Take `COc1ccc([C@@H]2CC(=O)c3c(cc(O)c(CNCCc4ccccc4)c3O)O2)cc1O`: the result in [1] and in series [2] was Active. The Activity result in series [4] was “Toxic”; in [5], “Non-toxic”. In addition, the logP in [3] stood at 1.67.
Regarding `CCC(C)NCc1c(O)cc2c(c1O)C(=O)C[C@@H](c1ccc(OC)c(O)c1)O2` (stereo not given in full), the result in [1] and in series [2] was Active. The logP in [3] was found to be 0.04.
As to `CCN1CCN(Cc2c(O)cc3c(c2O)C(=O)C[C@@H](c2ccc(OC)c(O)c2)O3)CC1`, the result in series [1], in series [2] and in series [7] was Active. Besides, the Activity entry in series [6] was “Dose-dependent effect”; in series [4], “Toxic”; in [8], “Dose-dependent effect”; in series [5] it was “Non-toxic”. Moreover, the lipophilicity (logP) in series [3] was -0.75.
With `CCN(CC)Cc1c(O)cc2c(c1O)C(=O)C[C@@H](c1ccc(OC)c(O)c1)O2`, the outcome in series [1] and in series [2] was Active. Further, the logP in series [3] was determined as 1.68. Moreover, in series [5], the Activity result is “Non-toxic”.
Consider `COc1ccc([C@@H]2CC(=O)c3c(cc(O)c(CNC(C)c4ccccc4)c3O)O2)cc1O` (stereo not given in full), for which the outcome in [1] and in series [2] was Active. This molecule showed a logP in series [3] of 1.72.
On to `COc1ccc([C@@H]2CC(=O)c3c(cc(O)c(CNCCc4ccc([N+](=O)[O-])cc4)c3O)O2)cc1O`, for which the result in series [1] and in series [2] was Active. In series [3], this molecule had a logP of 1.73.
Consider `COc1ccc([C@@H]2CC(=O)c3c(cc(O)c(CN4CCN(CCN5CCOCC5)CC4)c3O)O2)cc1O`, for which the outcome in series [1] and in [2] was Active. In addition, the logP in series [3] came out at 1.18.
As to `COc1ccc([C@@H]2CC(=O)c3c(cc(O)c(CNC(C)C)c3O)O2)cc1O`, the result in series [1], in series [2] and in [7] was Active. For the same molecule, the values for the Activity result in series [6], in series [8] and in [5] were “Dose-dependent effect”, “Dose-dependent effect” and “Non-toxic”, respectively. The same molecule displayed a logP in series [3] of -0.26.
As for `COc1ccc([C@@H]2CC(=O)c3c(cc(O)c(CNC(C)(C)C)c3O)O2)cc1O`, the Activity entry is “Dose-dependent effect” in series [9]; “Dose-dependent effect” in [6]; “Toxic” in series [4]; “Dose-dependent effect” in series [8]; “Non-toxic” in series [5]. For the same molecule, the outcome in [1], in series [2] and in series [7] was Active. Also, the logP in [3] is -0.76.
Regarding `COc1ccc([C@@H]2CC(=O)c3c(cc(O)c(CNCCc4ccc(Cl)cc4)c3O)O2)cc1O`, the result in series [1] and in series [2] was Active. In [3], the logP was found to be 1.77.
With `COc1ccc([C@@H]2CC(=O)c3c(cc(O)c(CN4CCN(CCO)CC4)c3O)O2)cc1O`, the result in series [1] and in [2] was Active. Also, the logP in series [3] came out at 1.15.
As to `COc1ccc([C@@H]2CC(=O)c3c(cc(O)c(CN(C)C)c3O)O2)cc1O`, the result in series [1] and in series [2] was Active. The molecule further registered a logP in series [3] of 1.03.

Usually logP stands for a log measure of how a compound divides between an organic and an aqueous phase. Higher therefore signals higher lipophilicity.
